Measurements published in the NIST ThermoML archive (doi:10.1021/acs.jced.7b00483).
± gives the expanded uncertainty stated by the source.

Experiment: molar heat capacity at constant pressure; mn = molality of the nth substance listed, in mol/kg
Conditions: 100 kPa, Liquid, Flow calorimetry

[Cl][Cu][Cl] [copper chloride] + O
molar heat capacity at constant pressure [J/K/mol]
Conditions | 298.15 K | 303.15 K | 313.15 K | 323.15 K | 333.15 K | 343.15 K | 353.15 K | 363.15 K
m1 = 0.2971 | 74.06 ± 0.75 | 74.34 ± 0.76 | 74.86 ± 0.76 | 75.29 ± 0.76 | 75.6 ± 0.76 | 75.85 ± 0.76 | 75.98 ± 0.78 | 76.05 ± 0.78
m1 = 0.5433 | 73.82 ± 0.75 | 74.14 ± 0.75 | 74.68 ± 0.77 | 75.1 ± 0.77 | 75.41 ± 0.77 | 75.6 ± 0.77 | 75.69 ± 0.77 | 75.68 ± 0.77
m1 = 0.7083 | 73.51 ± 0.74 | 73.84 ± 0.76 | 74.42 ± 0.76 | 74.85 ± 0.76 | 75.16 ± 0.76 | 75.34 ± 0.76 | 75.34 ± 0.76 | 75.3 ± 0.76
m1 = 1.018 | 73.01 ± 0.74 | 73.37 ± 0.74 | 74 ± 0.74 | 74.48 ± 0.76 | 74.86 ± 0.76 | 75.1 ± 0.76 | 75.24 ± 0.76 | 75.22 ± 0.76
m1 = 1.448 | 72.53 ± 0.73 | 72.93 ± 0.73 | 73.62 ± 0.76 | 74.19 ± 0.76 | 74.61 ± 0.76 | 74.9 ± 0.76 | 75.05 ± 0.76 | 75.05 ± 0.76
m1 = 1.899 | 72.05 ± 0.72 | 72.47 ± 0.74 | 73.19 ± 0.74 | 73.8 ± 0.74 | 74.24 ± 0.74 | 74.59 ± 0.77 | 74.74 ± 0.77 | 74.78 ± 0.77
m1 = 2.012 | 72.27 ± 0.73 | 72.71 ± 0.73 | 73.51 ± 0.75 | 74.13 ± 0.75 | 74.61 ± 0.75 | 74.94 ± 0.75 | 75.12 ± 0.75 | 75.12 ± 0.75
m1 = 2.424 | 72.23 ± 0.73 | 72.74 ± 0.73 | 73.63 ± 0.76 | 74.38 ± 0.76 | 74.96 ± 0.76 | 75.37 ± 0.76 | 75.64 ± 0.78 | 75.73 ± 0.78
m1 = 2.954 | 72.36 ± 0.74 | 72.91 ± 0.74 | 73.85 ± 0.74 | 74.59 ± 0.76 | 75.16 ± 0.76 | 75.52 ± 0.76 | 75.71 ± 0.76 | 75.71 ± 0.76
m1 = 3.454 | 72.47 ± 0.75 | 73.05 ± 0.75 | 74.06 ± 0.75 | 74.93 ± 0.77 | 75.63 ± 0.77 | 76.15 ± 0.77 | 76.52 ± 0.77 | 76.67 ± 0.77
m1 = 4.036 | 72.69 ± 0.73 | 73.32 ± 0.75 | 74.4 ± 0.75 | 75.31 ± 0.75 | 76.01 ± 0.78 | 76.5 ± 0.78 | 76.79 ± 0.78 | 76.89 ± 0.78
m1 = 4.452 | 72.71 ± 0.75 | 73.37 ± 0.75 | 74.54 ± 0.75 | 75.48 ± 0.77 | 76.17 ± 0.77 | 76.62 ± 0.77 | 76.81 ± 0.77 | 76.78 ± 0.77

[Cl][Ni][Cl] [nickel chloride (NiCl2)] + O
molar heat capacity at constant pressure [J/K/mol]
Conditions | 298.15 K | 303.15 K | 313.15 K | 323.15 K | 333.15 K | 343.15 K | 353.15 K | 363.15 K
m1 = 0.1432 | 74.53 ± 0.77 | 74.56 ± 0.77 | 74.64 ± 0.77 | 74.73 ± 0.77 | 74.84 ± 0.77 | 74.97 ± 0.77 | 75.09 ± 0.77 | 75.24 ± 0.77
m1 = 0.3571 | 73.64 ± 0.75 | 73.75 ± 0.75 | 73.98 ± 0.75 | 74.17 ± 0.75 | 74.3 ± 0.77 | 74.41 ± 0.77 | 74.48 ± 0.77 | 74.5 ± 0.77
m1 = 0.7035 | 72.08 ± 0.74 | 72.41 ± 0.74 | 72.91 ± 0.74 | 73.42 ± 0.76 | 73.73 ± 0.76 | 73.92 ± 0.76 | 73.96 ± 0.76 | 73.88 ± 0.76
m1 = 0.9968 | 70.92 ± 0.72 | 71.28 ± 0.72 | 71.88 ± 0.74 | 72.38 ± 0.74 | 72.74 ± 0.74 | 72.98 ± 0.74 | 73.12 ± 0.74 | 73.12 ± 0.74
m1 = 1.24 | 70.61 ± 0.72 | 70.99 ± 0.72 | 71.67 ± 0.74 | 72.22 ± 0.74 | 72.63 ± 0.74 | 72.92 ± 0.74 | 73.06 ± 0.74 | 73.08 ± 0.74
m1 = 1.53 | 70.09 ± 0.71 | 70.49 ± 0.71 | 71.18 ± 0.74 | 71.73 ± 0.74 | 72.15 ± 0.74 | 72.44 ± 0.74 | 72.59 ± 0.74 | 72.59 ± 0.74
m1 = 1.874 | 69.74 ± 0.71 | 70.16 ± 0.71 | 70.89 ± 0.71 | 71.5 ± 0.74 | 71.93 ± 0.74 | 72.23 ± 0.74 | 72.41 ± 0.74 | 72.45 ± 0.74
m1 = 2.241 | 69.49 ± 0.72 | 69.96 ± 0.72 | 70.74 ± 0.72 | 71.39 ± 0.72 | 71.88 ± 0.74 | 72.2 ± 0.74 | 72.37 ± 0.74 | 72.4 ± 0.74
m1 = 2.608 | 69.48 ± 0.71 | 69.99 ± 0.71 | 70.89 ± 0.71 | 71.63 ± 0.74 | 72.2 ± 0.74 | 72.64 ± 0.74 | 72.89 ± 0.74 | 72.98 ± 0.74
m1 = 3.614 | 69.27 ± 0.7 | 69.86 ± 0.72 | 70.88 ± 0.72 | 71.73 ± 0.72 | 72.42 ± 0.75 | 72.94 ± 0.75 | 73.29 ± 0.75 | 73.49 ± 0.75
m1 = 4.102 | 69.42 ± 0.69 | 70.04 ± 0.72 | 71.12 ± 0.72 | 72.02 ± 0.72 | 72.69 ± 0.75 | 73.18 ± 0.75 | 73.48 ± 0.75 | 73.56 ± 0.75
